Laboratory results as given in paper PMC11318591 (ACS Medicinal Chemistry Letters, 2024).
Converted amounts (≈) assume the structure as drawn. Where two headings read alike, the source gives them in different places.

Legend:
S. aureus DNA gyrase = S. aureus DNA gyrase (Staphylococcus aureus, UniProt P20831); assay: DNA cleavage assay
[1] = tested on: S. enterica Typhimurium 14028 ΔtolC1::kan; assay: Minimal inhibitory concentration; format: cell-based, Salmonella enterica serovar Typhimurium; conditions: for MIC: Salmonella enterica, TYPHIMURIUM, read-out: S. enterica Typhimurium 14028 ΔtolC1::kan MIC
[2] = MIC wildtype 14028 vs efflux-deficient ΔtolC1::kan

Sequence of S. aureus DNA gyrase (P20831 whole entry): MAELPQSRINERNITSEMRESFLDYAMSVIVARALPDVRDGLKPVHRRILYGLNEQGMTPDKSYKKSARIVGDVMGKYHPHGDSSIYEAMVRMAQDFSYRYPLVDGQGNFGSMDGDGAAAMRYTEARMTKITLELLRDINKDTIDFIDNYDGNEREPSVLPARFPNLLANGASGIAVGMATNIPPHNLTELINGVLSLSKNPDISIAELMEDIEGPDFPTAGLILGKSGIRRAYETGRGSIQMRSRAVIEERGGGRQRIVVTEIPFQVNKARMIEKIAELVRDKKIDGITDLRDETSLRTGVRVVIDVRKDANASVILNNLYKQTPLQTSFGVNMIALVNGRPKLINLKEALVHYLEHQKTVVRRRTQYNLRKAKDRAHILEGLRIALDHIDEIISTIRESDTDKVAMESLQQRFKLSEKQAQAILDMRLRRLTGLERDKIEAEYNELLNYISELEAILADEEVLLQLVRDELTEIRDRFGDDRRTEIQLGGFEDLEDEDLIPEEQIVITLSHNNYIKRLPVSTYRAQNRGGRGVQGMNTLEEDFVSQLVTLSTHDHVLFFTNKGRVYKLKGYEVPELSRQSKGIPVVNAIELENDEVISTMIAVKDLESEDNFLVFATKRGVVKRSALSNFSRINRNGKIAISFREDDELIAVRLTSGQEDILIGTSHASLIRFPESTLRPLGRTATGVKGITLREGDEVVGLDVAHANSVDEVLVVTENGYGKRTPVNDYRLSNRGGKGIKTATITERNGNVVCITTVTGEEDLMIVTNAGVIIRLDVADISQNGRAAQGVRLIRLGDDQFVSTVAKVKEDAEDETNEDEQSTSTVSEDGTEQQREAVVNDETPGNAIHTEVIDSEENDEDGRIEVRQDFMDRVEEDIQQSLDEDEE
Sequence of S. aureus DNA gyrase (P0A0K8 whole entry partner): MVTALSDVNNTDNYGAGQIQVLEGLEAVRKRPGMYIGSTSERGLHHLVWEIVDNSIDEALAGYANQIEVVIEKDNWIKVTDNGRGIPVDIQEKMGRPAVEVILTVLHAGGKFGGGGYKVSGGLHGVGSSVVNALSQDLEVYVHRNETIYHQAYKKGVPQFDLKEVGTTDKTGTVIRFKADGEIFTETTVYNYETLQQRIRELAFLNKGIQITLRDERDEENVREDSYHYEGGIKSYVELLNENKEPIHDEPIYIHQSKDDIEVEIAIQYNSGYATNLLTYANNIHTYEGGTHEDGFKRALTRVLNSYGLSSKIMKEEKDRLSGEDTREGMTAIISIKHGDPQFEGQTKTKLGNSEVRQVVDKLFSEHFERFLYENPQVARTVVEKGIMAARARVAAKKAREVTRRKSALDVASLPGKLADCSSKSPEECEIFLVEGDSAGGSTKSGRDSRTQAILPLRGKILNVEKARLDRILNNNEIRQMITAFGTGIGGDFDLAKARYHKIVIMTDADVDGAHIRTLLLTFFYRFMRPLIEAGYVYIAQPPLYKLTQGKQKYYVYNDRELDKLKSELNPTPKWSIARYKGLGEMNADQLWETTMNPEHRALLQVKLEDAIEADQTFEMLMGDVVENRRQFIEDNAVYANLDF

SMILES: COc1ccc2ncc(F)c(CCN3CCC(C(N)Cc4ccc(C)cc4)CC3)c2n1 (stereo not drawn) [9a]
- levels of SSBs (S. aureus DNA gyrase): lower levels of SSBs

SMILES: COc1ccc2ncc(F)c(CCN3CCC(/C=C/c4ccc(C)cc4)CC3)c2n1 [13a]
- MIC [1]: 0.5 to 1 µg/mL (≈ 1.23 to 2.47 µM)

SMILES: COc1ccc2ncc(F)c(CCN3CCC([C@@H](O)[C@H](O)c4ccc(C)cc4)CC3)c2n1 [16a]
- MIC [1]: 0.5 to 1 µg/mL (≈ 1.14 to 2.28 µM)

SMILES: COc1ccc2ncc(F)c(CCN3CCC([C@@H](O)[C@H](O)c4ccc5c(c4)OCCO5)CC3)c2n1 [16b]
- MIC [1]: 0.5 µg/mL (≈ 1.03 µM)

SMILES: COc1ccc2ncc(F)c(CCN3CCC(/C=C\c4ccc(C)cc4)CC3)c2n1 [21a]
- Fold Change [1]: ≥8

SMILES: COc1ccc2ncc(F)c(CCN3CCC(/C=C\c4ccc5c(c4)OCCO5)CC3)c2n1 [21b]
- Fold Change [1, 2]: ≥16

SMILES: O=c1ccc2ncc(=O)n3c2n1C[C@H]3CN1CCC(NCc2cc3c(cn2)OCCC3)CC1 [Gep., gepotidacin, reference compound]
- Fold Change [1, 2]: 4–16
- MIC [1]: 0.125 to 0.5 µg/mL (≈ 0.279 to 1.11 µM)

SMILES: COc1ccc2ncc(F)c(CCN3CCC(NCc4ccc(C)cc4)CC3)c2n1 [compound 40]
- levels of SSBs (S. aureus DNA gyrase): lower levels of SSBs
